These results are taken from publication PMC7665192, “A natriuretic peptide from Arabidopsis thaliana (AtPNP-A) can modulate catalase 2 activity” (Scientific Reports, 2020).

Assay [1] concerns CAT2 recombinant (rCAT2). In words: SPR, rCAT2 immobilized on NTA chip. Format: binding, Arabidopsis thaliana. As to conditions: His-tagged rCAT2 immobilized at app. 4,500 RU, analytes at the same concentration, 20 °C. On the procedure:
N-terminally 6xHis-tagged AtPNP-A and CAT2 proteins were expressed in BL21 (DE3) One Shot E. coli cells (Life Technologies), purified by affinity chromatography with Ni–NTA beads (Qiagen) and HisTrap HP column (GE Healthcare Lifesciences) as described in[21]. The purity of preparations was verified on 12.5% SDS-PAGE, stained with Coomassie Brilliant Blue (Bio-Rad). Protein identities were confirmed in MS analysis, and protein concentration was determined according to the method of Bradford using BSA as a standard.
SPR experiments were performed at 20 °C on Biacore T100 instrument operated using Biacore T100 control software (version 2.0.2, GE Healthcare Lifesciences) using Series S CM5 or NTA sensor chips as described in[21]. […]
Figure 2 AtPNP-A directly interacts with Arabidopsis CAT2 and bovine liver CAT in vitro. […] The models were analyzed and visualized using UCSF Chimera (version 1.10.2; https://www.cgl.ucsf.edu/chimera/)[55]. […]
A general note: Surface plasmon resonance follows binding to a sensor surface in real time, without labels.

Assay [2] concerns rCAT2. In words: Enzymatic activity of rCAT2, Amplex Red catalase assay. The assay is classed as biochemical, Arabidopsis thaliana. As to conditions: 100 nM, Amplex Red catalase assay kit; three independent experiments, P < 0.01. The protocol: Enzymatic activity of CAT isozymes and total CAT activities of protein extracted from WT and atpnp-a or cat2-2 mutant lines, when indicated sprayed with 1 nM pAtPNP-A or pScr 20 min before harvesting, were determined zymographically and spectrophotometrically, as described in[56]. Relative quantification of intensity of bands corresponding to different CAT isoforms was performed with ImageJ version 1.48 (https://imagej.nih.gov/ij/). Enzymatic activity of the rCAT2 in the presence of absence of 100 nM rAtPNP-A, pAtPNP-A or pScr were determined with the use of Amplex Red catalase assay kit (Invitrogen) according to the manufacturer’s instructions.
Figure 3 AtPNP-A directly interacts with CAT2 to modulate its enzymatic activity in vitro. (a) Zymogram depicting changes in the enzymatic activity of CAT isoforms extracted from wild type (WT) or cat2-2 knockout mutant seedlings in response to 1 nM pAtPNP-A or pScr. Densitometric semi-quantification of bands corresponding to CAT2, normalized to the loading control (dark-coloured band on zymogram) for WT samples treated with 1 nM pAtPNP-A or pScr (mean ± SD, Student’s t-test, n = 3, P < 0.05). […] (b) Total CAT activity in protein extracted from WT seedlings assayed with Amplex Red catalase assay kit in the presence of 1 nM pAtPNP-A, rAtPNP-A, or pScr. […] (c) Enzymatic activity of rCAT2 in the presence of 100 nM pAtPNP-A, rAtPNP-A, or pScr.

Assay [3] deals with CAT2, catalase 2. Kind of assay: Yeast two-hybrid (Y2H) screen. Format: binding, A. thaliana. As to conditions: bait AtPNP-A amino acids 26–130, prey At4g35090.1. The protocol: (§1) The Y2H screen using AtPNP-A as bait was carried out by Dualsystems Biotech AG (Zurich, Switzerland). The bait construct for the screening was made by subcloning the cDNA fragment encoding exported portion of AtPNP-A (amino acids 26 to 130) (Fig. 1a) into the pLexA-DIR vector (Dualsystems Biotech AG). The bait construct was transformed into the strain NMY32 (MATa his3Δ200 trp1-901 leu2-3,112 (lexAop)8-ADE2 LYS2::(lexAop)4-HIS3 URA3::(lexAop)8-lacZ GAL4) using standard procedures. Correct expression of the bait was verified by western blotting of cell extracts using a mouse monoclonal antibody directed against the LexA domain (Dualsystems Biotech AG). The absence of self-activation was verified by co-transformation of the bait together with a control prey and selection on minimal medium lacking tryptophan, leucine, and histidine (selective medium). For the Y2H screen, the bait was co-transformed together with a normalized A. thaliana universal P02403 cDNA library (Dualsystems Biotech AG) into NMY32. 3.1 × 10^6 transformants were screened, yielding 96 transformants that grew on selective medium. […] Library plasmids were isolated from positive clones. The identity of positive interactants was determined by sequencing. DNA sequences translated in all three reading frames and searching against the SwissProt database using the BLASTX algorithm (https://blast.ncbi.nlm.nih.gov).

For assay [4], the system named is ER, enhanced of rudimentary homologue, ATER. Kind of assay: Yeast two-hybrid (Y2H) screen. As to conditions: bait AtPNP-A amino acids 26–130, prey At5g10810.1. The assay is classed as binding, A. thaliana. On the procedure:
as §1

Assay [5] deals with PLL4, poltergeist like 4. In words: Yeast two-hybrid (Y2H) screen. Format: binding, A. thaliana. As to conditions: bait AtPNP-A amino acids 26–130, prey At2g28890.1. The protocol:
as §1

Assay [6] deals with SHA1, shoot apical meristem arrest 1. In words: Yeast two-hybrid (Y2H) screen. The following applies: bait AtPNP-A amino acids 26–130, prey At5g63780.1. The assay is classed as binding, A. thaliana. The protocol:
as §1

Assay [7] deals with CRF6, cytokinin response factor 6. Kind of assay: Yeast two-hybrid (Y2H) screen. As to conditions: bait AtPNP-A amino acids 26–130, prey At3g61630.1. Format: binding, A. thaliana. On the procedure:
as §1

Positions of bridges follow the written chain, without caps; N, C: chain ends. Residues, ends and D or L forms follow the SMILES beside them. *: point of attachment. Biotin = O=C1N[C@H]2[C@H](CS[C@H]2CCCCC(=O)*)N1

Regarding `CC(C)C[C@@H]1NC(=O)[C@H](CC(N)=O)NC(=O)[C@H](CC(N)=O)NC(=O)[C@H](CCCCN)NC(=O)[C@H](C(C)C)NC(=O)CNC(=O)[C@H](C(C)C)NC(=O)[C@H](C(C)C)NC(=O)[C@H](CC(C)C)NC(=O)[C@H]([C@@H](C)O)NC(=O)[C@H](CCC(=O)O)NC(=O)[C@H](CCCNC(=N)N)NC(=O)[C@H](CCC(N)=O)NC(=O)[C@H]([C@@H](C)O)NC(=O)CNC(=O)[C@H](Cc2ccc(O)cc2)NC(=O)[C@@H](NC(=O)[C@H](C)NC(=O)[C@H](CO)NC(=O)[C@H](CCCNC(=N)N)NC(=O)[C@@H](NC(=O)[C@H](Cc2ccc(O)cc2)NC(=O)[C@@H]2CCCN2)[C@@H](C)O)CSSC[C@@H](C(=O)NCC(=O)N[C@@H](CCCNC(=N)N)C(=O)N[C@@H](CCCNC(=N)N)C(=O)N[C@@H](Cc2ccc(O)cc2)C(=O)N[C@@H](CCCNC(=N)N)C(=O)N[C@H](C(=O)N[C@@H](CCCNC(=N)N)C(=O)N[C@@H](CCCCNC(=O)CCCC[C@@H]2SC[C@@H]3NC(=O)N[C@@H]32)C(=O)O)C(C)C)NC(=O)[C@H](C)NC(=O)[C@H](CCCNC(=N)N)NC(=O)CNC(=O)[C@H](CC(N)=O)NC(=O)[C@H](CCC(N)=O)NC(=O)[C@H](Cc2c[nH]c3ccccc23)NC1=O` [pAtPNP-A] (H-PYTRSACYGTQRETLVVGVKNNLWQNGRACGRRYRVRK(Biotin)-OH; disulfide 7-30; N-terminus and C-terminus assumed), the “SPR binding response to rCAT2” value in assay [1] is “significant accumulation of the biologically active analyte”. Besides, the “In vitro enzymatic activity of rCAT2” value in assay [2] is “significantly enhanced”.
As to “AtPNP-A: An A. thaliana PNP, termed AtPNP-A (At2g18660; Q9ZV52)”, the Strength of binding result is “Weak” in assay [3]; “Weak” in assay [4]; “Strong” in assay [5]; “Strong” in assay [6]; “Weak” in assay [7].
